Reference: patent US20020026053A1, “Novel 3-(substituted) -2- indolinones compounds and use thereof as inhibitors of protein kinase activity” (priority 1997, published 2002)

Columns and labels:
FLK-1 receptor = test: FLK-1 Assay (cellular/catalytic ELISA, VEGF-stimulated phosphotyrosine); assay type: cell-based; design: concentration or dose not given beside the values
Procedure, shortened: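 NIH3T3 C7#3 cells engineered to express Flk-1 were serum-starved overnight (0.1% FBS), then exposed to compound for 2 h at 37 °C (final dilution 1:200, 0.5% DMSO) before VEGF stimulation. Lysates captured on anti-FLK-1 antiserum plates; phosphotyrosine detected by UB40 antibody/POD-ABTS ELISA versus untreated controls.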

PDGF-R = PDGF-R Assay (cellular ELISA, U1242 cells); assay type: cell-based; design: concentration or dose not given beside the values
Procedure, shortened: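 U1242 cells seeded in 0.5% serum, serum-starved, then exposed to compound for 2 hr at 37°C before 5–10 min ligand stimulation and lysis in HNTG. Lysate captured on receptor-antibody-coated plates; phosphotyrosine detected with polyclonal anti-pTyr, goat anti-rabbit IgG and ABTS/H2O2, A410 (ref 630 nm), versus untreated cells.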

Compound | Flk Kinase % Inhibition (P.110) (FLK-1 receptor) [%] | PDGF Kinase % Inhibition (P.119) (PDGF-R) [%]
CCOC(=O)c1c(C)[nH]c(C=C2C(=O)Nc3c(Br)cc(Br)c(C)c32)c1C [10718/H02] | −1.4 | –
COc1cc(Br)c(O)c(C=C2C(=O)Nc3c(Br)cc(Br)c(C)c32)c1 [10718/H03] | −5.0 | –
Cc1c(Br)cc(Br)c2c1C(=Cc1ccc3ccccc3c1O)C(=O)N2 [10718/H04] | −5.7 | –
CCOC(=O)CCc1c(C(=O)OCC)[nH]c(C=C2C(=O)Nc3c(Br)cc(Br)c(C)c32)c1CC(=O)OCC [10718/H05] | 1.0 | –
CCOC(=O)c1cc(C=C2C(=O)Nc3c(Br)cc(Br)c(C)c32)oc1C [10718/H06] | 18.2 | –
COC(=O)c1[nH]c(C)c(C=C2C(=O)Nc3c(Br)cc(Br)c(C)c32)c1C(=O)OC [10718/H07] | −3.0 | –
Cc1c(Br)cc(Br)c2c1C(=Cc1ccc(Cl)c([N+](=O)[O-])c1)C(=O)N2 [10718/H08] | −0.5 | –
CCOc1cccc(C=C2C(=O)Nc3c(Br)cc(Br)cc32)c1O [10734/A02] | 4.1 | −3.8
O=C1Nc2c(Br)cc(Br)cc2C1=Cc1cc(Cl)cc(Cl)c1O [10734/A03] | 10.1 | 22.3
O=C1Nc2c(Br)cc(Br)cc2C1=Cc1cc(Cl)ccc1O [10734/A04] | 0.6 | 11.7
CCN(CC)c1ccc(C=C2C(=O)Nc3c(Br)cc(Br)cc32)c(O)c1 [10734/A05] | 9.1 | 2.9
O=C1Nc2c(Br)cc(Br)cc2C1=Cc1ccc([N+](=O)[O-])cc1 [10734/A06] | −6.4 | −9.9
O=C1Nc2c(Br)cc(Br)cc2C1=Cc1cc(Br)cc(Br)c1O [10734/A07] | −9.4 | 21.9
O=C1Nc2c(Br)cc(Br)cc2C1=Cc1cccc(F)c1O [10734/A08] | 0.1 | 9.1
O=C1Nc2c(Br)cc(Br)cc2C1=Cc1ccc(O)c(Br)c1 [10734/A09] | −7.9 | −9.5
CC(C)(C)c1ccc(C=C2C(=O)Nc3c(Br)cc(Br)cc32)cc1 [10734/A10] | 4.4 | 26.3
O=C1Nc2c(Br)cc(Br)cc2C1=Cc1ccc(Br)s1 [10734/A11] | 6.3 | 5.5
CCOc1cccc(C=C2C(=O)Nc3ccc(I)cc32)c1O [10734/B02] | 8.5 | −2.9
O=C1Nc2ccc(I)cc2C1=Cc1cc(Cl)cc(Cl)c1O [10734/B03] | 21.7 | 13.0
O=C1Nc2ccc(I)cc2C1=Cc1cc(Cl)ccc1O [10734/B04] | 2.8 | 14.4
CCN(CC)c1ccc(C=C2C(=O)Nc3ccc(I)cc32)c(O)c1 [10734/B05] | −2.3 | 56.3
O=C1Nc2ccc(I)cc2C1=Cc1ccc([N+](=O)[O-])cc1 [10734/B06] | −0.9 | 0.2
O=C1Nc2ccc(I)cc2C1=Cc1cc(Br)cc(Br)c1O [10734/B07] | 9.1 | 18.8
O=C1Nc2ccc(I)cc2C1=Cc1cccc(F)c1O [10734/B08] | −0.5 | −2.4
O=C1Nc2ccc(I)cc2C1=Cc1ccc(O)c(Br)c1 [10734/B09] | −32.3 | 12.6
CC(C)(C)c1ccc(C=C2C(=O)Nc3ccc(I)cc32)cc1 [10734/B10] | 15.7 | 7.7
O=C1Nc2ccc(I)cc2C1=Cc1ccc(Br)s1 [10734/B11] | 12.6 | −5.5
CCOc1cccc(C=C2C(=O)Nc3ccc(Br)c(C)c32)c1O [10734/C02] | −3.9 | 36.0
Cc1c(Br)ccc2c1C(=Cc1cc(Cl)cc(Cl)c1O)C(=O)N2 [10734/C03] | −5.6 | 24.5
